Measured values published in patent US7858044B2, “Multi-well plate providing a high-density storage and assay platform” (Nexus Biosystems, Inc., priority 2003, dated 2010).

Target: recombinant human CYP 3A4 (Homo sapiens, UniProt P08684)
Assay: CYP 3A4 isozyme inhibition screen with fluorogenic substrate BOMR in 3456-well plate
Conditions: concentration series

Sequence of recombinant human CYP 3A4 (P08684 whole entry): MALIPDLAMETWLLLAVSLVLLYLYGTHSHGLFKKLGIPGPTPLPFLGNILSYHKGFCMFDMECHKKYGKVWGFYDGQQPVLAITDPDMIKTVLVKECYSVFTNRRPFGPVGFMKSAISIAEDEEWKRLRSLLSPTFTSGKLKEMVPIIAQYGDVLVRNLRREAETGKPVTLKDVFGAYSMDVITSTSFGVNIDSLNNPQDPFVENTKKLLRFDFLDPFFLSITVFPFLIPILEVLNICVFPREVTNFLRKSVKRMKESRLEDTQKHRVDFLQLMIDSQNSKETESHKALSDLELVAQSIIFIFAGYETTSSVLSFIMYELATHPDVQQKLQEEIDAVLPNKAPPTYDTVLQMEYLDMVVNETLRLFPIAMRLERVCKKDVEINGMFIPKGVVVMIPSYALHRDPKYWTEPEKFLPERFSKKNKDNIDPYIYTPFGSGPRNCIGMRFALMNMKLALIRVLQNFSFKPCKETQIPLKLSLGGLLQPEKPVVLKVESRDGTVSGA

C[C@]12CC[C@H]3[C@@H](CCC4=CC(=O)CC[C@@]43C)[C@@H]1CC[C@@H]2O [testosterone]
Potentiation of CYP 3A4 isozyme: Potentiation
